Ki data for two molecules are collected here from patent US7408066B2, “Carbon-linked substituted piperidines and derivatives thereof useful as histamine H3 antagonists” (Schering Corproation, priority 2005, dated 2008).

The target in assay [1] is T1, H3 receptors (recombinant human receptor, expressed in HEK-293 cells) (Homo sapiens, UniProt Q9Y5N1).
T1 construct: expressed in transfected cells; host or cells: HEK-293 (human embryonic kidney) cells
The assay can be described thus: H3-receptor binding assay, recombinant human receptor. As for the experimental part:
(§1) General Procedure for H3-Receptor Binding Assay
(§2) The source of the H3 receptors in this experiment was guinea pig brain. Alternatively, the source of H3 receptors was recombinant human receptor, expressed in HEK-293 (human embryonic kidney) cells.
All compounds to be tested were dissolved in DMSO and then diluted into the binding buffer (50 mM Tris, pH 7.5) such that the final concentration was 2 μg/ml with 0.1% DMSO. Membranes were then added (400 μg of protein, 5 μg in the case of recombinant human receptor) to the reaction tubes. The reaction was started by the addition of 3 nM [^3H]R-α-methyl histamine (8.8 Ci/mmol) or 3 nM [^3H]N^α-methyl histamine (80 Ci/mmol) and continued under incubation at 30° C. for 30 min. Bound ligand was separated from unbound ligand by filtration, and the amount of radioactive ligand bound to the membranes was quantitated by liquid scintillation spectrometry. All incubations were performed in duplicate and the standard error was always less than 10%. Compounds that inhibited more than 70% of the specific binding of radioactive ligand to the receptor were serially diluted to determine a Ki (nM).

Assay [2] concerns the target T2, H3 receptors (guinea pig brain) (Cavia porcellus, UniProt Q9JI35).
T2 construct: The brain tissue was homogenized with a solution of 50 mM Tris, pH 7.5; from tissue; host or cells: guinea pig brain membranes
Put plainly: H3-receptor binding assay, guinea pig brain membranes. The method, then: as §1, §2
The animals weighed 400-600 g. The brain tissue was homogenized with a solution of 50 mM Tris, pH 7.5. The final concentration of tissue in the homogenization buffer was 10% w/v. The homogenates were centrifuged at 1,000×g for 10 min. in order to remove clumps of tissue and debris. The resulting supernatants were then centrifuged at 50,000×g for 20 min. in order to sediment the membranes, which were next washed three times in homogenization buffer (50,000×g for 20 min. each). The membranes were frozen and stored at −70° C. until needed.
All compounds to be tested were dissolved in DMSO and then diluted into the binding buffer (50 mM Tris, pH 7.5) such that the final concentration was 2 μg/ml with 0.1% DMSO. Membranes were then added (400 μg of protein, 5 μg in the case of recombinant human receptor) to the reaction tubes. […] Bound ligand was separated from unbound ligand by filtration, and the amount of radioactive ligand bound to the membranes was quantitated by liquid scintillation spectrometry. […]

T1 sequence (Q9Y5N1 whole entry): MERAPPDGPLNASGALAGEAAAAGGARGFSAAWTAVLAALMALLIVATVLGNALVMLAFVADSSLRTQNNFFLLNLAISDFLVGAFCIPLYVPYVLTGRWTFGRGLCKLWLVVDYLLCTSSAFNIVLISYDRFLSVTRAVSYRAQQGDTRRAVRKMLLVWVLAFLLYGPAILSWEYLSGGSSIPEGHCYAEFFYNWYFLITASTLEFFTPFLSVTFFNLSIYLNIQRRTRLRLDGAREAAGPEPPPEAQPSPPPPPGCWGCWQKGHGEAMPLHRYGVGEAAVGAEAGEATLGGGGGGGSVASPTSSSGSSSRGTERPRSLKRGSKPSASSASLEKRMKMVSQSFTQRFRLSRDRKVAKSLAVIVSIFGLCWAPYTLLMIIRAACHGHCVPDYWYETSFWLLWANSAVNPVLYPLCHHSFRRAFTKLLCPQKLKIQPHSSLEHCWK
T2 sequence (Q9JI35 whole entry): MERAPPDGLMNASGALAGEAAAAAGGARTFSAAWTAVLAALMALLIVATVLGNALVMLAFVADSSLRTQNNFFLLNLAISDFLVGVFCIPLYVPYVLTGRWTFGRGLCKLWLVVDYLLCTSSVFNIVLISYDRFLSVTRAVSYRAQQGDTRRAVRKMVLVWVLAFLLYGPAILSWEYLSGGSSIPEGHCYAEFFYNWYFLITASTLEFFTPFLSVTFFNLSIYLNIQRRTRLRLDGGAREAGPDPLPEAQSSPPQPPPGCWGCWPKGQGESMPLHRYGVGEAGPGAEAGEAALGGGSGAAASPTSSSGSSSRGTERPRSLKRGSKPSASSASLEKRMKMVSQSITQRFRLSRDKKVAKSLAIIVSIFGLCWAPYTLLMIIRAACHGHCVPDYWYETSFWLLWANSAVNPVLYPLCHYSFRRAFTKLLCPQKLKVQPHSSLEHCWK

Turning to `CNC(=O)[C@H]1C[C@@]1(c1ccc(Cl)cc1)C1CCN(C(=O)C2CCN(Cc3ccnc(N)c3)CC2)CC1` [Example 88], the Ki (as a rule, the equilibrium dissociation constant of an inhibitor or competing ligand from its target) in assay [1] is 1100 pM.
For the molecule `CS(=O)(=O)NC(c1ccccn1)C1CCN(C(=O)C2CCN(Cc3ccnc(N)c3)CC2)CC1` (centres unmarked) [Example 92], the Ki in assay [2] was 350 pM.
